# Assay results published in article PMC9323625, “Structure–Function Insights into the Fungal Endo-Chitinase Chit33 Depict its Mechanism on Chitinous Material” (International Journal of Molecular Sciences, 2022).
# Molecular target: T1, Chit33 (Trichoderma harzianum, UniProt Q12713, D165A/E167A)
# T1 construct: gene chit33 (909 bp, 321 amino acids) expressed in Pichia pastoris GS115 from CHIT33-pIB4, secreted to the extracellular fraction; 33 kDa
# T1 sequence (Q12713 20-321 D165A/E167A): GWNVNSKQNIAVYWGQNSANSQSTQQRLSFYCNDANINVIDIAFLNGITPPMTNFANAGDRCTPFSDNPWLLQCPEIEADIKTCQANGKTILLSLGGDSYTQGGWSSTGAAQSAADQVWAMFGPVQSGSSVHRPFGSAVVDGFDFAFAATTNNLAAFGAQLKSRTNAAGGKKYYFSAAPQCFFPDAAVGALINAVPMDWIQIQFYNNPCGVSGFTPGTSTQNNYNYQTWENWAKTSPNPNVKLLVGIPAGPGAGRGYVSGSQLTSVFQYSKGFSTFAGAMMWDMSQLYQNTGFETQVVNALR
# Experiment: X-ray crystal structure, […] Å
# Assay type: binding
# Conditions: crystal soaked with 18 mM NAG4 for 30 min; active site, subsites −2 to +2; inactivated double mutant
smiles,measurement,value
"CC(=O)N[C@H]1[C@H](O[C@H]2[C@H](O)[C@@H](NC(C)=O)C(O)O[C@@H]2CO)O[C@H](CO)[C@@H](O[C@@H]2O[C@H](CO)[C@@H](O[C@@H]3O[C@H](CO)[C@@H](O)[C@H](O)[C@H]3NC(C)=O)[C@H](O)[C@H]2NC(C)=O)[C@@H]1O (stereo partly shown) [NAG4, N,N’,N’’,N’’’-acetyl chitotetraose]","X-ray crystal structure, 1.60 Å",we determined the crystal structure of the inactive double-mutant D165A/E167A with the substrate NAG4
